Data as given in patent US20190024193A1, “Sesquiterpene Biosensors and Uses Thereof” (priority 2017, published 2019).

How the values were obtained:
PB2 bisabolol biosensor = PB2 bisabolol biosensor reporter fluorescence (Gemini reporter, GFP portion) in E. coli EPI300 host cells; assay type: cell-based, E. coli EPI300 (PB2 insert originating from Pseudomonas); conditions: E. coli EPI300 with PB2, high (0.01% arabinose) or low copy number
Description: (§1) A metagenomic library made from environmental samples obtained from hots springs, permafrost, sea water, soil, and hydrocarbon resource samples (from soil) was made using the Meta-G-Nome™ DNA Isolation Kit and CopyControl™ Fosmid Library Production Kit obtained from Epicentre. 300-400 fosmid clones from this library were obtained and mixed with a Tn5 transposase and sufficient biosensor construct (FIG. 1) was added to give about 10 biosensor inserts per fosmid. The transposase randomly integrated the biosensor construct into the fosmid vector, and the modified fosmid library with biosensor constructs was transformed into E. coli strain EPI300™ (commercially sold by Epicentre). The E. coli EPI300™ transformed with the modified fosmid library was plated on LB media with 20 μg/ml spectinomycin and 0.01% arabinose.
(§2) These functional biosensors were interrogated with (−)-α-bisabolol and clones that produced reporter fluorescence above control in response to the (−)-α-bisabolol were selected. Two bisabolol positive clones were selected and designated PB2 and PB3. PB2 was obtained from a fosmid with an insert originating from Pseudomonas, and PB3 was obtained from a fosmid with an insert originating from Bradyrhizobium.
(§3) As described above, the copy number of the fosmids with the PB2 biosensor and the PB3 biosensor can by increased in E. coli EPI300™ host cells that are treated with arabinose to induce an increase in copy number of the fosmid. E. coli EPI300™ with the PB2 or PB3 biosensors were treated (high copy number) or not treated (low copy number) with arabinose and then screened for reporter activity (Gemini reporter fluorescence from the GFP portion).
(§4) E. coli EPI300™ with fosmids containing PB2 or PB3 were grown without arabinose (low copy number) and in the presence of spectinomycin (200 μg/ml for PB2 and 500 μg/ml for PB3). The host cells were treated with different concentrations of (−)-α-bisabolol (0.0, 0.1, 0.25, 0.4, 0.5, 1.0 and 1.5 mM). FIGS. 6 and 7 show the fluorescence results for PB2 and PB3. Both biosensors show a dose response between 0.05 and 1.0 mM (−)-α-bisabolol.
(§5) E. coli EPI300™ with fosmids containing PB2 or PB3 were grown with 0.01% arabinose for high copy number of the biosensor, or grown in the absence of arabinose for low copy number of the biosensor, and then treated with a sesquiterpene: (−)-α-bisabolol, squalene, nerolidol, cintonellal, carvone, farnesene, or cineole. PB2 was also tested against linalool and PB3 was tested against ursolic acid.

PB3 bisabolol biosensor = PB3 bisabolol biosensor reporter fluorescence (Gemini reporter, GFP portion) in E. coli EPI300 host cells; assay type: cell-based, E. coli EPI300 (PB3 insert originating from Bradyrhizobium); conditions: for response of PB3 biosensor to stimulation with the compound: E. coli EPI300 with PB3, high (0.01% arabinose) or low copy number
Description: as §1, §2, §3, §4, §5

Compound | response of PB2 biosensor to stimulation with the compound (PB2 bisabolol biosensor) | response of PB3 biosensor to stimulation with the compound (PB3 bisabolol biosensor) | response of PB3 biosensor relative to (−)-α-bisabolol (PB3 bisabolol biosensor; E. coli EPI300 with PB3, 1 mM nerolidol)
CC(C)=CCC[C@](C)(O)[C@@H]1CC=C(C)CC1 [(−)-α-bisabolol] | high specificity for induction | – | –
C=C(C)C1CC=C(C)C(=O)C1 (stereo not drawn) [carvone] | did not respond above background | did not respond above background | –
CC12CCC(CC1)C(C)(C)O2 [cineole] | did not respond above background | did not respond above background | –
CC(C)=CCC[C@@H](C)CC=O [cintonellal] | did not respond above background | did not respond above background | –
C=CC(C)(O)CCC=C(C)C (stereo not drawn) [linalool] | did not respond above background | – | –
C=CC(C)(O)CCC=C(C)CCC=C(C)C (stereo not drawn) [nerolidol] | did not respond above background | – | comparable activity to PB3 treated with 0.2 mM (−)-α-bisabolol
CC(C)=CCC/C(C)=C/CC/C(C)=C/CC/C=C(\C)CC/C=C(\C)CCC=C(C)C [squalene] | did not respond above background | did not respond above background | –
C[C@H]1[C@H](C)CC[C@]2(C(=O)O)CC[C@]3(C)C(=CC[C@@H]4[C@@]5(C)CC[C@H](O)C(C)(C)[C@@H]5CC[C@]43C)[C@H]12 [ursolic acid] | – | did not respond above background | –
farnesene | did not respond above background | did not respond above background | –
